# Reference: ChEMBL document CHEMBL1201862, “PubChem BioAssay data set” (2004)
#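 Compound exposure: 48 hours, 5 concentrations, 96-well plates. GI50 marks 50% less growth.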 Calls of active or inactive are those of the source. Rule as the data show it: active = GI50 up to about 1.1 µM and inactive = higher.
# Tests used:
# Experiment in all cases: growth of human tumour cells (NCI), 48 h
# CAKI-1 = system: CAKI-1
# COLO 205 = system: COLO 205
# EKVX = system: EKVX
# HCT-116 = system: HCT-116
# HT-29 = system: HT-29
# K562 = system: K562
# KM12 = system: KM12
# LOX IMVI = system: LOX IMVI
# MOLT-4 = system: MOLT-4
# Malme-3M = system: Malme-3M
# NCI-H460 = system: NCI-H460
# OVCAR-4 = system: OVCAR-4
# SK-MEL-28 = system: SK-MEL-28
# SK-MEL-5 = system: SK-MEL-5
# SN12C = system: SN12C
# SNB-19 = system: SNB-19
# SNB-75 = system: SNB-75
# SR = system: SR
# MCF7 = system: MCF7
# T47D = system: T47D
SMILES,GI50 (CAKI-1),GI50 (COLO 205),GI50 (EKVX),GI50 (HCT-116),GI50 (HT-29),GI50 (K562),GI50 (KM12),GI50 (LOX IMVI),GI50 (MOLT-4),GI50 (Malme-3M),GI50 (NCI-H460),GI50 (OVCAR-4),GI50 (SK-MEL-28),GI50 (SK-MEL-5),GI50 (SN12C),GI50 (SNB-19),GI50 (SNB-75),GI50 (SR),GI50 (MCF7),GI50 (T47D)
CN(C)CCNC(=O)c1cccc2ccc(-c3ccc(-c4ccccc4)cc3)nc12,5.13 µM (inactive),1.6 µM (inactive),8.17 µM (inactive),1.72 µM (inactive),1.75 µM (inactive),2.13 µM (inactive),2.09 µM (inactive),1.63 µM (inactive),1.91 µM (inactive),1.97 µM (inactive),1.61 µM (inactive),2.72 µM (inactive),1.76 µM (inactive),1.72 µM (inactive),6.59 µM (inactive),11.4 µM (inactive),2.88 µM (inactive),2.3 µM (inactive),–,–
CCN(CC)c1ccc(/N=C2/C=CC(=O)c3ncccc32)c(C)c1,11 µM (inactive),2.18 µM (inactive),16.6 µM (inactive),2.47 µM (inactive),15.1 µM (inactive),2.45 µM (inactive),13.8 µM (inactive),1.91 µM (inactive),2 µM (inactive),3.82 µM (inactive),6.43 µM (inactive),2.11 µM (inactive),11.8 µM (inactive),5.53 µM (inactive),7.38 µM (inactive),16.1 µM (inactive),14.8 µM (inactive),2.65 µM (inactive),–,–
COC(=O)NC(=O)c1cn(CCCOC(=O)CCCCCCCCC(=O)OCCCn2cc(C(=O)NC(=O)OC)c(=O)[nH]c2=O)c(=O)[nH]c1=O,28.8 µM (inactive),–,55.2 µM (inactive),> 100 µM (inactive),> 100 µM (inactive),> 100 µM (inactive),> 100 µM (inactive),> 100 µM (inactive),> 100 µM (inactive),> 100 µM (inactive),> 100 µM (inactive),> 100 µM (inactive),> 100 µM (inactive),> 100 µM (inactive),> 100 µM (inactive),42.4 µM (inactive),22.3 µM (inactive),> 100 µM (inactive),–,–
O=C(Nc1c(O)[nH]c(=S)[nH]c1=O)c1ccccc1,> 100 µM (inactive),> 100 µM (inactive),–,> 100 µM (inactive),> 100 µM (inactive),> 100 µM (inactive),> 100 µM (inactive),> 100 µM (inactive),> 100 µM (inactive),> 100 µM (inactive),> 100 µM (inactive),> 100 µM (inactive),> 100 µM (inactive),> 100 µM (inactive),> 100 µM (inactive),> 100 µM (inactive),> 100 µM (inactive),> 100 µM (inactive),–,–
CN(CCCNC(=O)c1cn(C)c2c1Cc1ccccc1-2)CCCNC(=O)c1cn(C)c2c1Cc1ccccc1-2,14.9 µM (inactive),1.9 µM (inactive),9.4 µM (inactive),9.33 µM (inactive),2.32 µM (inactive),2.78 µM (inactive),13 µM (inactive),6.82 µM (inactive),3.35 µM (inactive),11.7 µM (inactive),8.89 µM (inactive),12.8 µM (inactive),10.8 µM (inactive),14.2 µM (inactive),13.4 µM (inactive),11.4 µM (inactive),–,1.45 µM (inactive),10.2 µM (inactive),–
Cc1ccc(S(=O)(=O)N2CC(CCN)c3ccccc32)cc1 (stereo not given),6.38 µM (inactive),4.06 µM (inactive),13 µM (inactive),2.27 µM (inactive),2.89 µM (inactive),4.35 µM (inactive),6.03 µM (inactive),2.99 µM (inactive),28 µM (inactive),4 µM (inactive),5.08 µM (inactive),17.5 µM (inactive),5.16 µM (inactive),2.58 µM (inactive),2.72 µM (inactive),4.97 µM (inactive),5.46 µM (inactive),5.19 µM (inactive),1.47 µM (inactive),–
CCOP(=O)(OCC)/C(C#N)=C/c1cnc(C)[nH]1,> 100 µM (inactive),> 100 µM (inactive),> 100 µM (inactive),> 100 µM (inactive),> 100 µM (inactive),> 100 µM (inactive),> 100 µM (inactive),> 100 µM (inactive),> 100 µM (inactive),> 100 µM (inactive),> 100 µM (inactive),> 100 µM (inactive),> 100 µM (inactive),> 100 µM (inactive),> 100 µM (inactive),> 100 µM (inactive),> 100 µM (inactive),> 100 µM (inactive),> 100 µM (inactive),–
CC(C)Oc1c(-c2ccc(F)cc2)c(O)c2c3c1oc(=O)n3C=CC2C (stereo not given),14.2 µM (inactive),16 µM (inactive),14.3 µM (inactive),12.9 µM (inactive),16.6 µM (inactive),6.59 µM (inactive),13.2 µM (inactive),14.5 µM (inactive),6.07 µM (inactive),22.3 µM (inactive),14.2 µM (inactive),10.7 µM (inactive),15.7 µM (inactive),10.8 µM (inactive),11.5 µM (inactive),15.8 µM (inactive),14.8 µM (inactive),–,11.3 µM (inactive),–
O=C(c1ccc(-c2ccccc2)cc1)N(Cc1cccnc1)C(=S)N(Cc1cccnc1)C(=O)c1ccc(-c2ccccc2)cc1,27.1 µM (inactive),> 100 µM (inactive),> 100 µM (inactive),63.8 µM (inactive),48.5 µM (inactive),0.394 µM (active),56.6 µM (inactive),> 100 µM (inactive),0.198 µM (active),> 100 µM (inactive),> 100 µM (inactive),32.7 µM (inactive),> 100 µM (inactive),56 µM (inactive),> 100 µM (inactive),> 100 µM (inactive),–,0.241 µM (active),41.6 µM (inactive),–
CN(CCN(C)C(=O)CCOS(C)(=O)=O)C(=O)CCOS(C)(=O)=O,> 100 µM (inactive),> 100 µM (inactive),> 100 µM (inactive),> 100 µM (inactive),> 100 µM (inactive),> 100 µM (inactive),> 100 µM (inactive),> 100 µM (inactive),41 µM (inactive),> 100 µM (inactive),19.5 µM (inactive),> 100 µM (inactive),> 100 µM (inactive),> 100 µM (inactive),> 100 µM (inactive),> 100 µM (inactive),> 100 µM (inactive),15.6 µM (inactive),–,–
COCc1nc2c(OC)c(-c3nc4ccc(N5CCN(C)CC5)nc4[nH]3)cc(OC)c2n1C,40.7 µM (inactive),8.59 µM (inactive),21 µM (inactive),41.3 µM (inactive),19.9 µM (inactive),29.3 µM (inactive),24 µM (inactive),19.1 µM (inactive),16.4 µM (inactive),19.4 µM (inactive),26.4 µM (inactive),34 µM (inactive),23.4 µM (inactive),–,80 µM (inactive),35.4 µM (inactive),18.5 µM (inactive),–,–,38.6 µM (inactive)
CCOC(=O)CCn1cnc(N)n1,> 100 µM (inactive),> 100 µM (inactive),> 100 µM (inactive),> 100 µM (inactive),> 100 µM (inactive),> 100 µM (inactive),> 100 µM (inactive),> 100 µM (inactive),> 100 µM (inactive),> 100 µM (inactive),> 100 µM (inactive),> 100 µM (inactive),> 100 µM (inactive),> 100 µM (inactive),> 100 µM (inactive),> 100 µM (inactive),> 100 µM (inactive),> 100 µM (inactive),–,–
CSc1nc2[nH]c(=O)c(C)nc2c(=O)[nH]1,> 100 µM (inactive),> 100 µM (inactive),> 100 µM (inactive),> 100 µM (inactive),> 100 µM (inactive),> 100 µM (inactive),> 100 µM (inactive),> 100 µM (inactive),> 100 µM (inactive),> 100 µM (inactive),> 100 µM (inactive),> 100 µM (inactive),> 100 µM (inactive),> 100 µM (inactive),> 100 µM (inactive),> 100 µM (inactive),> 100 µM (inactive),> 100 µM (inactive),–,–
CC(=O)Nc1ccc(/N=N\c2c(O)c(S(=O)(=O)O)cc3cc(S(=O)(=O)O)ccc23)cc1,> 100 µM (inactive),> 100 µM (inactive),> 100 µM (inactive),> 100 µM (inactive),> 100 µM (inactive),> 100 µM (inactive),> 100 µM (inactive),–,–,> 100 µM (inactive),–,> 100 µM (inactive),> 100 µM (inactive),> 100 µM (inactive),> 100 µM (inactive),> 100 µM (inactive),> 100 µM (inactive),–,–,> 100 µM (inactive)
COC(=O)C1C(=O)O[C@@H](c2ccc(OC)cc2)C1C(=O)OC (stereo not given in full),> 100 µM (inactive),> 100 µM (inactive),> 100 µM (inactive),> 100 µM (inactive),> 100 µM (inactive),> 100 µM (inactive),> 100 µM (inactive),> 100 µM (inactive),> 100 µM (inactive),> 100 µM (inactive),–,> 100 µM (inactive),> 100 µM (inactive),> 100 µM (inactive),> 100 µM (inactive),> 100 µM (inactive),> 100 µM (inactive),> 100 µM (inactive),–,–
